From US7820711B2, “Uses of selective inhibitors of HDAC8 for treatment of T-cell proliferative disorders” (Pharmacyclics Inc., priority 2006, dated 2010)
Values belong to the molecule of their own block, whether it stands above or below them.

Assays:
HDAC-6 = target: T1, HDAC-6 (Homo sapiens, UniProt Q9UBN7); experiment: in vitro HDAC inhibition, HDAC-6; format: biochemical
T1 sequence (Q9UBN7 1-1215): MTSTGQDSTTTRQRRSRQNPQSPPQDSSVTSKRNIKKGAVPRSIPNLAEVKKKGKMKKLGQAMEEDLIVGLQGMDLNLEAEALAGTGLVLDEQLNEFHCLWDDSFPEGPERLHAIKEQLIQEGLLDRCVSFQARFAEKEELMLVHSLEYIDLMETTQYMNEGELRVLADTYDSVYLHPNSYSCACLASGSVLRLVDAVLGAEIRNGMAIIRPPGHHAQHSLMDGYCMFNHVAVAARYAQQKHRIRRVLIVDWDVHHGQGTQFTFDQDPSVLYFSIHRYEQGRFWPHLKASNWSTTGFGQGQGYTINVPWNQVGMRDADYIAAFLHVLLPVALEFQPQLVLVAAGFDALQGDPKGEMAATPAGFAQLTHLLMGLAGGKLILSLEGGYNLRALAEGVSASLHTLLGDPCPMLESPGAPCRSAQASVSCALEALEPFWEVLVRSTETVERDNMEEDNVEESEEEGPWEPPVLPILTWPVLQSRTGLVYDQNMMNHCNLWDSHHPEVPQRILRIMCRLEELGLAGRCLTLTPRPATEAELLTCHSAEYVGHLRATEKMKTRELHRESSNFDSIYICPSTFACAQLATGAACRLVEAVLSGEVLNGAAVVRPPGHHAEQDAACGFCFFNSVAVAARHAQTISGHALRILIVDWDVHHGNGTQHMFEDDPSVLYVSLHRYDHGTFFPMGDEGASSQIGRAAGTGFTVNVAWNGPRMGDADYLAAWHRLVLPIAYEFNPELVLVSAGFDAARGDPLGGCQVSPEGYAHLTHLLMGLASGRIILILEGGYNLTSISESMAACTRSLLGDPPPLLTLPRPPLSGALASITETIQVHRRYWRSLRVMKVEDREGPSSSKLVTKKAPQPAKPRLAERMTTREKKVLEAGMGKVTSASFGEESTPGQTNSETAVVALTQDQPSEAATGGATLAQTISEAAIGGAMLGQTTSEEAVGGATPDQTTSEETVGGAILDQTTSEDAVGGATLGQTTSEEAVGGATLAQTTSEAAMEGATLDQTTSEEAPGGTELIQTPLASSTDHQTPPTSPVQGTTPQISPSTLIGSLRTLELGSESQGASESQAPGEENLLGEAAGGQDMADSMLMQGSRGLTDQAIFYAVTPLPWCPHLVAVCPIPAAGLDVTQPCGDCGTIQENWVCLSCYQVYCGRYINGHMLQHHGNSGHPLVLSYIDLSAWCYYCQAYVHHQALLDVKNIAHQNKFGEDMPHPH

HDAC-8 = target: T2, HDAC-8 (Homo sapiens, UniProt Q9BY41); experiment: in vitro HDAC inhibition, HDAC-8; format: biochemical
T2 sequence (Q9BY41 1-377): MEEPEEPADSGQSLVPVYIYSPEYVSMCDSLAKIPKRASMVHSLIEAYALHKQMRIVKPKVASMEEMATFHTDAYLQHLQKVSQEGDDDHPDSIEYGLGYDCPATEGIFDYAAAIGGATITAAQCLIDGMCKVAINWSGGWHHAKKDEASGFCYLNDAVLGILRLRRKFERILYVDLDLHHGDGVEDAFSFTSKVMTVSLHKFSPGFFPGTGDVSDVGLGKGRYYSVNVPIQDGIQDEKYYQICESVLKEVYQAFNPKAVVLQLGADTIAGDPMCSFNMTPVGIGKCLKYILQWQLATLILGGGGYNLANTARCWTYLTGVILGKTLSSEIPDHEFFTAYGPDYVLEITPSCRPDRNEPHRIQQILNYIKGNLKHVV

HDAC-3 = HDAC-3 (Homo sapiens, UniProt O15379); experiment: in vitro HDAC inhibition, HDAC-3; format: biochemical
Sequence of HDAC-3 (O15379 whole entry): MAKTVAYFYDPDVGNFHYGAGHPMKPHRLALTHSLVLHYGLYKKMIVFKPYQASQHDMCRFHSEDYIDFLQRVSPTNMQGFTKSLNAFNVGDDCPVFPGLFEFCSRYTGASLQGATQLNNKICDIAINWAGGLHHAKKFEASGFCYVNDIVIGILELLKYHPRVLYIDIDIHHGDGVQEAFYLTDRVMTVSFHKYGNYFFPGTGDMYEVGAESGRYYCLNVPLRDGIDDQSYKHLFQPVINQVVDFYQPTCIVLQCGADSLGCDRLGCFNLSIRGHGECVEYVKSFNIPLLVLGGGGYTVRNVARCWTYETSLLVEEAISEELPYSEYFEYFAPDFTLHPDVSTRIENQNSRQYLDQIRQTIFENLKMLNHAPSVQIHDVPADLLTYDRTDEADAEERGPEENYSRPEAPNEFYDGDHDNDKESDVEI
Sequence of HDAC-3 (Q9Y618 395-489 partner limits assumed): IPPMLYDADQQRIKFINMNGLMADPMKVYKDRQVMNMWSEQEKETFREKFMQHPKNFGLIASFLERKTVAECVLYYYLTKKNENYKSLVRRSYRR

HDAC-1 = HDAC-1 (Homo sapiens, UniProt Q13547); experiment: in vitro HDAC inhibition, HDAC-1; format: biochemical
Sequence of HDAC-1 (Q13547 whole entry): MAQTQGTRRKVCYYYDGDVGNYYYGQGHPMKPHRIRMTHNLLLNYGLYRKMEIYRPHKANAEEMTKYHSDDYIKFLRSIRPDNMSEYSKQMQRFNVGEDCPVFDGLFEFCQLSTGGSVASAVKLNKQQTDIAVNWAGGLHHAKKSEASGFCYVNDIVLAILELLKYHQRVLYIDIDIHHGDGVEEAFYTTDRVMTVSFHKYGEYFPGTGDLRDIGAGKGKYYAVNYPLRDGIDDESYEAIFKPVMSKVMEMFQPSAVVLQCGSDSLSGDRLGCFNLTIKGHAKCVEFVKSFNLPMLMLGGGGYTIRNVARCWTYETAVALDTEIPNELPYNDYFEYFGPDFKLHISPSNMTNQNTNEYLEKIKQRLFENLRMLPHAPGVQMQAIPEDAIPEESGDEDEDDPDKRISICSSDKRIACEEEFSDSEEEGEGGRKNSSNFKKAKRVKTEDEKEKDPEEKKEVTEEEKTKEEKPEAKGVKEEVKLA

HDAC-2 = HDAC-2 (Homo sapiens, UniProt Q92769); experiment: in vitro HDAC inhibition, HDAC-2; format: biochemical
Sequence of HDAC-2 (Q92769 whole entry): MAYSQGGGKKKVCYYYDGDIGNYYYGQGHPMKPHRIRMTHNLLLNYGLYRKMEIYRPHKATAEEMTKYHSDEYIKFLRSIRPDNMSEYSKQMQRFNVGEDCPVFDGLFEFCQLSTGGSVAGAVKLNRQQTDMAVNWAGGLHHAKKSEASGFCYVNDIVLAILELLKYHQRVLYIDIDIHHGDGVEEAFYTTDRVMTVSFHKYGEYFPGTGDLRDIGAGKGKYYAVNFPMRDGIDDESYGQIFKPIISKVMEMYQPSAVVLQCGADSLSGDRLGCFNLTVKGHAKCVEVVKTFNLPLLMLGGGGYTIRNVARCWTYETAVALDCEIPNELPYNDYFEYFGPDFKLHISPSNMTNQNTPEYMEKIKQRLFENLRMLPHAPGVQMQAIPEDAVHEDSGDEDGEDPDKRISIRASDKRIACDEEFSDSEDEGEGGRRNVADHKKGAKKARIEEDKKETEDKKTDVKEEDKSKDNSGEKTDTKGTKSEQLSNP

HDAC-10 = target: T3, HDAC-10 (Homo sapiens, UniProt Q969S8); experiment: in vitro HDAC inhibition, HDAC-10; format: biochemical
T3 sequence (Q969S8 1-669): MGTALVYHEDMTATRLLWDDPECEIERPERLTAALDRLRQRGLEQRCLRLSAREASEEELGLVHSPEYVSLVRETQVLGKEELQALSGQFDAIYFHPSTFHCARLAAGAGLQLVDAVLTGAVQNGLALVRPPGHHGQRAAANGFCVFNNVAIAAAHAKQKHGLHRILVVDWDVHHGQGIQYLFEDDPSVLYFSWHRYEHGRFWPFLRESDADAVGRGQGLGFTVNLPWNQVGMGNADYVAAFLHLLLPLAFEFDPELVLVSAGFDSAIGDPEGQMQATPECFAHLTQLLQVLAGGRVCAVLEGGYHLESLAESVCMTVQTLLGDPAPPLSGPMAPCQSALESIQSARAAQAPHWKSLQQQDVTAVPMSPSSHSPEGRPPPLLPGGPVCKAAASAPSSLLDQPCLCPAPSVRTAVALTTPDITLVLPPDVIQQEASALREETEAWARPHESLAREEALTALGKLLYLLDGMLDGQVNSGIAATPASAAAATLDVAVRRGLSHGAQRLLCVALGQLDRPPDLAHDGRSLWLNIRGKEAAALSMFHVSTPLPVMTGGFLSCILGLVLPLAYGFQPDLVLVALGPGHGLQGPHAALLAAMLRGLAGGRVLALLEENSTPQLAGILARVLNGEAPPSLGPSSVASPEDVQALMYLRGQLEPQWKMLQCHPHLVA

Jurkat cells [1] = experiment: modulation of Compound 23-induced apoptosis in Jurkat cells; details: compound 23 10 μM
Ramos cells [2] = experiment: apoptosis in Ramos cells; format: cell-based
[3] = test system: P116 (ZAP-70 deficient Jurkat); experiment: Apoptosis in P116 cells
wild type Jurkat cells = experiment: cytochrome C translocation from mitochondria to cytosol, wild type Jurkat; details: HDAC inhibitors 12 or 24 hours, FIG. 9
[4] = test system: J.RT3-T.5 (TCR-b chain deficient Jurkat); experiment: Apoptosis in J.RT3-T.5 cells
Jurkat cells [5] = experiment: ratiometric fluorescence calcium imaging, Jurkat cells; format: cell-based, human; details: for intracellular calcium mobilization / time to rise in intracellular calcium: 10 μM, FIG. 10; for dose dependence of calcium mobilization: FIGS. 12 and 13; for effect on compound 23-stimulated increase in intracellular Ca2+ levels: FIG. 11
Jurkat WT = experiment: Apoptosis in Jurkat WT cells
[6] = test system: PLC-deficient J.γ1 Jurkat cells; experiment: cytochrome C translocation from mitochondria to cytosol, J.γ1 Jurkat; details: HDAC inhibitors 12 or 24 hours, FIG. 9
[7] = test system: PLC-γ1-deficient Jurkat J.γ1 cells; experiment: ratiometric fluorescence calcium imaging, J.γ1 cells; format: cell-based, human; details: FIG. 14
[8] = test system: J.g1 (Phospholipase C-g1 deficient Jurkat); experiment: Apoptosis in J.g1 cells
Ramos cells [9] = experiment: ratiometric fluorescence calcium imaging, Ramos cells; format: cell-based; details: FIG. 15

IC50 (HDAC-6): 360 nM
IC50 (HDAC-8): 24 nM
HDAC8 IC50 fold lower than the next lowest HDAC target IC50 (HDAC-8; vs HDACs 1, 2, 3, 6, 10): ~15 fold
IC50 (HDAC-3): 1500 nM
IC50 (HDAC-1): 2600 nM
IC50 (HDAC-2): 23000 nM
IC50 (HDAC-10): 5300 nM
Molecule: Cn1cc(Cc2ccc(F)cc2)c2cc(C(=O)NO)ccc21 [Compound 33, 1-methyl-3-(4-fluoro-phenylmethyl)-1H-indole-5-carboxylic acid hydroxyamide]

Molecule: C/C=C(/C)C(=O)O[C@H]1C(C)=C2[C@H]([C@@H]1OC(=O)CCCCCCC)[C@@](C)(OC(C)=O)C[C@H](OC(=O)CCC)[C@@]1(O)[C@H]2OC(=O)[C@@]1(C)O [thapsigargin]
effect on Compound 23-induced apoptosis (Jurkat cells [1]; thapsigargin 0.2 μM, FIG. 8(A)): enhanced apoptosis

Molecule: COc1ccc(Cn2ccc3ccc(C(=O)NO)cc32)cc1 [Compound 23, 1-(4-methoxy-phenylmethyl)-1H-indole-6-carboxylic acid hydroxyamide]
induction of apoptosis (Ramos cells [2]): failure to induce apoptosis
Apoptosis at 5 μM [3]: 82%
cytochrome C translocation from mitochondria to cytosol (wild type Jurkat cells): induced translocation
Apoptosis at 5 μM [4]: 67%
intracellular calcium mobilization (Jurkat cells [5]): sustained rise in intracellular calcium
time to rise in intracellular calcium (Jurkat cells [5]): approximately 1 minute
dose dependence of calcium mobilization (Jurkat cells [5]): dose dependent
Apoptosis at 5 μM (Jurkat WT): 43%
cytochrome C translocation from mitochondria to cytosol [6]: failed to alter the localization
effect on intracellular Ca2+ [7]: completely abolished
Apoptosis at 5 μM [8]: 12%
intracellular calcium levels (Ramos cells [9]): did not alter resting calcium levels

Molecule: CC(=O)OCOC(=O)CN(CC(=O)OCOC(C)=O)c1ccccc1OCCOc1ccccc1N(CC(=O)OCOC(C)=O)CC(=O)OCOC(C)=O [BAPTA-AM]
effect on Compound 23-induced apoptosis (Jurkat cells [1]; BAPTA-AM 0.5 μM, FIG. 8(B)): diminished apoptosis

Molecule: COc1ccc2c(c1)CC[C@@H]1[C@@H]2CC[C@]2(C)[C@@H](NCCCCCCN3C(=O)CCC3=O)CC[C@@H]12 [Compound U-73343]
effect on Compound 23-induced apoptosis (Jurkat cells [1]; FIG. 7): failed to block
effect on compound 23-stimulated increase in intracellular Ca2+ levels (Jurkat cells [5]): not

Molecule: CN(C)Cc1c(C(=O)NCCOc2ccc(C(=O)NO)cc2)oc2ccccc12 [CRA-024781]
intracellular calcium mobilization (Jurkat cells [5]): sustained rise in intracellular calcium
time to rise in intracellular calcium (Jurkat cells [5]): approximately 1 minute
dose dependence of calcium mobilization (Jurkat cells [5]): dose dependent
effect on intracellular Ca2+ [7]: completely abolished
intracellular calcium levels (Ramos cells [9]): robust increase

Molecule: COc1ccc2c(c1)CC[C@@H]1[C@@H]2CC[C@]2(C)[C@@H](NCCCCCCN3C(=O)C=CC3=O)CC[C@@H]12 [Compound U-73122]
effect on Compound 23-induced apoptosis (Jurkat cells [1]; FIG. 7): inhibited Compound 23-induced apoptosis in a dose-dependent manner
effect on compound 23-stimulated increase in intracellular Ca2+ levels (Jurkat cells [5]): strongly inhibited

B1: FasL: a pro-apoptotic protein (protein, UniProt P48023 130-281, looked up)
Tumor necrosis factor ligand …: QIGHPSPPPEKKELRKVAHLTGKSNSRSMPLEWEDTYGIVLLSGVKYKKGGLVINETGLYFVYSKVYFRGQSCNNLPLSHKVYMRNSKYPQDLVMMEGKMMSYCTTGQMWARSSYLGAVFNLTSADHLYVNVSELSLVNFEESQTFFGLYKL
cytochrome C translocation from mitochondria to cytosol (wild type Jurkat cells): effectively induced translocation
cytochrome C translocation from mitochondria to cytosol [6]: effectively induced translocation
